The values that follow come from paper doi:10.1101/2024.04.17.589937v1 (biorxiv, 2024).

In data set [1] the target is T1, human mitochondrial RNA polymerase (POLRMT) (Homo sapiens, UniProt O00411). The experiment in a line: single nucleotide incorporation rate assay. It counts as biochemical.
The target of another data set is DNA Pol α (Homo sapiens, UniProt P09884). The experiment in a line: human DNA polymerase inhibition assay. It counts as biochemical.
The target of another data set is DNA Pol γ (Homo sapiens, UniProt P54098). The data set is described as follows: human DNA polymerase inhibition assay. The data set is classed as biochemical.
The target in data set [2] is T1, human mitochondrial RNA polymerase (POLRMT). The data set is described as follows: biochemical.
In the next data set the test system is LLC-MK2. To be noted: monkey, llc-mk2 cells.
The subject of data set [3] is Human metapneumovirus hMPV A1. The experiment in a line: microbe, parasite or virus in culture. To be noted: LLC-MK2, read-out: hMPV A1 EC50 (µM).
A further data set concerns Enterovirus A71 EV-71. The experiment in a line: microbe, parasite or virus in culture. To be noted: Enterovirus A, EV71, RD, read-out: EV EC50 (µM).
In data set [4] the test system is EV-D68. The data set is described as follows: microbe, parasite or virus in culture. To be noted: Enterovirus D, EVD68, RD, read-out: EV EC50 (µM).
In another data set the test system is MDCK. To be noted: read-out: MDCK CC50, dog.
A short description of a further data set: in vitro. To be noted: human, a549-hace2 cells.
For data set [5], the system named is EV-D68. To be noted: read-out: RD CC50; human, rd cells.
The test system of data set [6] is Human rhinovirus B14 RV-B 14. The experiment in a line: microbe, parasite or virus in culture. To be noted: H1-HeLa, read-out: RV EC50 (µM).
In data set [7] the test system is Human rhinovirus A16 RV-A 16. To be noted: read-out: H1 HeLa CC50, h1 hela cells, 96 h.
Data set [8] has as its system Influenza A virus FluA H1N1. The experiment in a line: microbe, parasite or virus in culture. To be noted: H1N1, MDCK, read-out: FluA H1N1 EC50 (µM).
Data set [9] deals with Human rhinovirus A16 RV-A 16. The data set is described as follows: microbe, parasite or virus in culture. To be noted: H1-HeLa, read-out: RV EC50 (µM).

T1 sequence (O00411 42-1230): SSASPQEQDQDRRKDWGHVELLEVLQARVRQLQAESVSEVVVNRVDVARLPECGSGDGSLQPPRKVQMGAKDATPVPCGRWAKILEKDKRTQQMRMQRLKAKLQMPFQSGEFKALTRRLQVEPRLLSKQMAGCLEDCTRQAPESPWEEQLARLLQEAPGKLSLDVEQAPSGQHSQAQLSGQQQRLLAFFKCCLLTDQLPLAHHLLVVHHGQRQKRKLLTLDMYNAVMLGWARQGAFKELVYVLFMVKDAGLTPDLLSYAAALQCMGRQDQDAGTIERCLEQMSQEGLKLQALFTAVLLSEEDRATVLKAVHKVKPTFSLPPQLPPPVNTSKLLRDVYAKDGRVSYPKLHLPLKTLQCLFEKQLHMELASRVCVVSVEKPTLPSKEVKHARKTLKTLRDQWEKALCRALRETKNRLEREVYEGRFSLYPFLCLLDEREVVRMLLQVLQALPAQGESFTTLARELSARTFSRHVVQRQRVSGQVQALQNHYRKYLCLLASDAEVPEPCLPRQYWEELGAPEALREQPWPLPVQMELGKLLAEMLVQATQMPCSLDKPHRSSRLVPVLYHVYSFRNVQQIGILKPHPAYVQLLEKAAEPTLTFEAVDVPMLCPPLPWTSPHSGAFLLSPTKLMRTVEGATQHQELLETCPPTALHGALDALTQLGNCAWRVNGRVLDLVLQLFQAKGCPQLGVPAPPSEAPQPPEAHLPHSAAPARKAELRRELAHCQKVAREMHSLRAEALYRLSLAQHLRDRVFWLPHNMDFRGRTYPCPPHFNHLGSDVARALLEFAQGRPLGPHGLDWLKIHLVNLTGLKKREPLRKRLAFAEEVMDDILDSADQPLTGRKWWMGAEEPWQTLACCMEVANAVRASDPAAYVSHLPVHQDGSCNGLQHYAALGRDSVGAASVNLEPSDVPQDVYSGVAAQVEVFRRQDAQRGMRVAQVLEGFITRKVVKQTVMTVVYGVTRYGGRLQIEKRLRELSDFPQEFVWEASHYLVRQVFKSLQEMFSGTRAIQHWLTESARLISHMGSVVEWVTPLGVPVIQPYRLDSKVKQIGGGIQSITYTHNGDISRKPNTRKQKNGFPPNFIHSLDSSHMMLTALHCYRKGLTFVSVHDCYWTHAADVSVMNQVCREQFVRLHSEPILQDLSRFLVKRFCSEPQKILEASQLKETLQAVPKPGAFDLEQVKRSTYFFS
DNA Pol γ, sequence (Q9UHN1 26-485): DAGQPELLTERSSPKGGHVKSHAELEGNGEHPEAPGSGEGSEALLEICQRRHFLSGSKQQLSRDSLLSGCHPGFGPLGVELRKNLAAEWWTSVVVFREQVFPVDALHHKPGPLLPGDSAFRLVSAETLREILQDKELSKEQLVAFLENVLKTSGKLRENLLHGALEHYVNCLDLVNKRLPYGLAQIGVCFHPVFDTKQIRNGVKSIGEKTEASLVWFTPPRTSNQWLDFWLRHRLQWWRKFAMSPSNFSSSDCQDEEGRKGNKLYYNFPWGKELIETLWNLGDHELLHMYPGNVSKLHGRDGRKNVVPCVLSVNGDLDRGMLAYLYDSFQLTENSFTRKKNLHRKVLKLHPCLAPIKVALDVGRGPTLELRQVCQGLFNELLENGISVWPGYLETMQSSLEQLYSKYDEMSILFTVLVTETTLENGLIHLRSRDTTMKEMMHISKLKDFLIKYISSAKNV
DNA Pol γ, sequence (P54098 whole entry): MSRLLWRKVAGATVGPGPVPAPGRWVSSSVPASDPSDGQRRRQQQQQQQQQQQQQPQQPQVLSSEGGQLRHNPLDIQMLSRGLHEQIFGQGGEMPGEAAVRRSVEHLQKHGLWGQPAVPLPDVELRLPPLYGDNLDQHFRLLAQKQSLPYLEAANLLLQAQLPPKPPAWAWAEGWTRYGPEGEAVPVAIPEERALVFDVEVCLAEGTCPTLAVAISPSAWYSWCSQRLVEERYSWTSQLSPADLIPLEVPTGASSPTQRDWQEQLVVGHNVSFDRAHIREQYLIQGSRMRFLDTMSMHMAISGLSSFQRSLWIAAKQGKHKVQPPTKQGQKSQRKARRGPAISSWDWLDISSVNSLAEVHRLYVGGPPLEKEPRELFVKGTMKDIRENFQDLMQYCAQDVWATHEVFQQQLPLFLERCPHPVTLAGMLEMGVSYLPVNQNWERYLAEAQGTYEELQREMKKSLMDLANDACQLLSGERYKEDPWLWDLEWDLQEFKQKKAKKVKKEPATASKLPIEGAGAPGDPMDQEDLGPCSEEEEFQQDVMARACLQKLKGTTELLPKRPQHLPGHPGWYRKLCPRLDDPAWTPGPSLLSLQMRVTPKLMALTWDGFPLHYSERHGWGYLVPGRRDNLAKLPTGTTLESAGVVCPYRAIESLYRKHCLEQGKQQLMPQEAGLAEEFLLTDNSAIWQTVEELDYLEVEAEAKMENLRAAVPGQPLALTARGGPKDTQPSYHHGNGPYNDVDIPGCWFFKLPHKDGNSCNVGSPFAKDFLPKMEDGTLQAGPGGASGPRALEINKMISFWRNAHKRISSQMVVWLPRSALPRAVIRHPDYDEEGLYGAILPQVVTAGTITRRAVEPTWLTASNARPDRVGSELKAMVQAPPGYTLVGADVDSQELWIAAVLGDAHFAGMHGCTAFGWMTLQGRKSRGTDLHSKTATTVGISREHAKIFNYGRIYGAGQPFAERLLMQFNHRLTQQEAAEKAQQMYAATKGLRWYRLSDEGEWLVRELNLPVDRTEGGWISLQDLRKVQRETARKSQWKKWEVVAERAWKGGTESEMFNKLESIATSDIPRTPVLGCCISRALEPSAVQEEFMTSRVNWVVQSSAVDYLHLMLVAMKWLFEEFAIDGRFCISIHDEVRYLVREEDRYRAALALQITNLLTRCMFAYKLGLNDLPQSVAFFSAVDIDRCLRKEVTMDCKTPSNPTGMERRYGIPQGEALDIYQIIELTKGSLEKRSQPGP
DNA Pol α, sequence (P09884 whole entry): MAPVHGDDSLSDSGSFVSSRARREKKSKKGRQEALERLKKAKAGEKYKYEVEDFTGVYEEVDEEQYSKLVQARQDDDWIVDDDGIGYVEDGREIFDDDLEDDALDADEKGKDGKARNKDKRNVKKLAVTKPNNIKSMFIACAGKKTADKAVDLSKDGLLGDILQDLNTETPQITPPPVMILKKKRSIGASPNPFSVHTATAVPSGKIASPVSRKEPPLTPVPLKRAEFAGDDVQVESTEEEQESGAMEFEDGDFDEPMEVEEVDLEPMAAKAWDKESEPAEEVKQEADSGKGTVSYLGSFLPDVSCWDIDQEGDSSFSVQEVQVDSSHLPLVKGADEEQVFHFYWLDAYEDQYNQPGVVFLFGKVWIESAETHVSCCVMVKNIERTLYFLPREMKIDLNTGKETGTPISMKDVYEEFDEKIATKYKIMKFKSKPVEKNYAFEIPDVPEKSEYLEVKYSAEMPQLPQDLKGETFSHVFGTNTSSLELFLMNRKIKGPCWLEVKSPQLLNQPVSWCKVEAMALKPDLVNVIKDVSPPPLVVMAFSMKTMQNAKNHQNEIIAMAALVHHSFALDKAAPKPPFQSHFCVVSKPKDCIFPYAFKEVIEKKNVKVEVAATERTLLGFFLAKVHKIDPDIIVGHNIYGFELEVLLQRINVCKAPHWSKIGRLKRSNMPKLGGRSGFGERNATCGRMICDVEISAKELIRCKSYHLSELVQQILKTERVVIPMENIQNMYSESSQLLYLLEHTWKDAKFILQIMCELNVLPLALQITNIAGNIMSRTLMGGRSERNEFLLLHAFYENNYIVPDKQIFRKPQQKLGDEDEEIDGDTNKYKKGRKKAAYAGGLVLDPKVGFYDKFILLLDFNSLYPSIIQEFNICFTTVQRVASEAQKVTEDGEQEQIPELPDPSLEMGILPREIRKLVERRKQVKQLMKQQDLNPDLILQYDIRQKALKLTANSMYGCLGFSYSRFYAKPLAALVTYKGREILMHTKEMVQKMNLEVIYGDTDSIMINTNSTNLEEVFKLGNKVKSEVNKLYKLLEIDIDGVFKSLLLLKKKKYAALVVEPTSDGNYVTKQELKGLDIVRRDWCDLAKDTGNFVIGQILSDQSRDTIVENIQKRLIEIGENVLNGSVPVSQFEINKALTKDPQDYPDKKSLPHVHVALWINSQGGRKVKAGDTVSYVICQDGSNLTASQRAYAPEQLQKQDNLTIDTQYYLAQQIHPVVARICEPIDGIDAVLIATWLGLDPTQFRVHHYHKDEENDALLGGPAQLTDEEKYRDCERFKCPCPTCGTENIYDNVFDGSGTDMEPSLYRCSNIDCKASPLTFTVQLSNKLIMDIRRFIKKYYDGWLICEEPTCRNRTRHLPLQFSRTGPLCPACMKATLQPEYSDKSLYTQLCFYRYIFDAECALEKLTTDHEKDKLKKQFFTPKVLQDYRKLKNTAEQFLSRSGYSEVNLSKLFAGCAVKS

Turning to `N#C[C@]1(COP(=O)(O)OP(=O)(O)OP(=O)(O)O)O[C@@H](c2ccc3c(N)ncnn23)[C@H](O)[C@@H]1O` [2-NTP, ((2R,3S,4R,5S)-5-(4-Aminopyrrolo[2,1-f][1,2,4]triazin-7-yl)-2-cyano-3,4-dihydroxytetrahydrofuran-2-yl)methyl triphosphate], in [1], the SNIR is 0.8%. The half-maximal inhibitory concentration (IC50) (at DNA Pol α; against DNA Pol γ; in data set [2]) was more than 200 µM each time.
Regarding `COC(=O)[C@H](C)N[P@](=O)(OC[C@@]1(C#N)O[C@@H](c2ccc3c(N)ncnn23)[C@H](OC(=O)C(C)C)[C@@H]1OC(=O)C(C)C)Oc1ccccc1` [compound 1, GS-7682], the CC50 in the data set on LLC-MK2 was more than 2 µM; with MDCK it was more than 2 µM; in the data set on EV-D68 [5] it was more than 2 µM; in [7] it was 22.2 ± 6.3 µM. Also, the EC50 was 0.21 ± 0.05 µM in [3]; 0.083 ± 0.035 µM in the data set on Enterovirus A71 EV-71; 0.09 ± 0.06 µM in the data set with EV-D68 [4]; 0.054 ± 0.002 µM in data set [6]; more than 2 µM in data set [8]; 0.061 ± 0.006 µM in [9]. For the same molecule, the CC50 at 28 h in the data set “in vitro” worked out at 21.1 ± 4.4 µM.
